Results published in patent publication US12030879B2, “Sulfonyl acetamides as NLRP3 inhibitors” (Inflazome Limited, priority 2018, dated 2024).
Counter-ions that a name gives are not always drawn.

target: T1, NLRP3 (Homo sapiens, UniProt Q96P20); experiment: THP-1 cells pyroptosis assay; assay type: cell-based; conditions: LPS 1 μg/ml, compound 3 hrs, nigericin 5 μM 1 hr, resazurin readout
T1 construct: Seed THP-1 cells (25,000 cells/well) containing 1.0 μg/ml LPS in 40 μl of RPMI medium; host or cells: THP-1 cells
Description: THP-1 cells (ATCC #TIB-202) were grown in RPMI containing L-glutamine (Gibco #11835) supplemented with 1 mM sodium pyruvate (Sigma #S8636) and penicillin (100 units/ml)/streptomycin (0.1 mg/ml) (Sigma #P4333) in 10% Fetal Bovine Serum (FBS) (Sigma #F0804). The cells were routinely passaged and grown to confluency (10^6 cells/ml). On the day of the experiment, THP-1 cells were harvested and resuspended into RPMI medium (without FBS). The cells were then counted and viability (>90%) checked by Trypan blue (Sigma #T8154). Appropriate dilutions were made to give a concentration of 625,000 cells/ml. To this diluted cell solution was added LPS (Sigma #L4524) to give a 1 μg/ml Final Assay Concentration (FAC). 40 μl of the final preparation was aliquoted into each well of a 96-well plate. The plate thus prepared was used for compound screening.
The following method step-by-step assay was followed for compound screening. • 1. Seed THP-1 cells (25,000 cells/well) containing 1.0 μg/ml LPS in 40 μl of RPMI medium (without FBS) in 96-well, black walled, clear bottom cell culture plates coated with poly-D-lysine (VWR #734-0317) • 2. Add 5 μl compound (8 points half-log dilution, with 10 μM top dose) or vehicle (DMSO 0.1% FAC) to the appropriate wells • 3. Incubate for 3 hrs at 37° C., 5% CO2 • 4. Add 5 μl nigericin (Sigma #N7143) (FAC 5 μM) to all wells • 5. Incubate for 1 hr at 37° C., 5% CO2 • 6. At the end of the incubation period, spin plates at 300×g for 3 mins and remove supernatant • 7. Then add 50 μl of resazurin (Sigma #R7017)(FAC 100 μM resazurin in RPMI medium without FBS) and incubate plates for a further 1-2 hrs at 37° C. and 5% CO2 • 8. Plates were read in an Envision reader at Ex 560 nm and Em 590 nm • 9. IC50 data is fitted to a non-linear regression equation (log inhibitor vs response-variable slope 4-parameters) 96-well Plate Map

T1 sequence (Q96P20 whole entry): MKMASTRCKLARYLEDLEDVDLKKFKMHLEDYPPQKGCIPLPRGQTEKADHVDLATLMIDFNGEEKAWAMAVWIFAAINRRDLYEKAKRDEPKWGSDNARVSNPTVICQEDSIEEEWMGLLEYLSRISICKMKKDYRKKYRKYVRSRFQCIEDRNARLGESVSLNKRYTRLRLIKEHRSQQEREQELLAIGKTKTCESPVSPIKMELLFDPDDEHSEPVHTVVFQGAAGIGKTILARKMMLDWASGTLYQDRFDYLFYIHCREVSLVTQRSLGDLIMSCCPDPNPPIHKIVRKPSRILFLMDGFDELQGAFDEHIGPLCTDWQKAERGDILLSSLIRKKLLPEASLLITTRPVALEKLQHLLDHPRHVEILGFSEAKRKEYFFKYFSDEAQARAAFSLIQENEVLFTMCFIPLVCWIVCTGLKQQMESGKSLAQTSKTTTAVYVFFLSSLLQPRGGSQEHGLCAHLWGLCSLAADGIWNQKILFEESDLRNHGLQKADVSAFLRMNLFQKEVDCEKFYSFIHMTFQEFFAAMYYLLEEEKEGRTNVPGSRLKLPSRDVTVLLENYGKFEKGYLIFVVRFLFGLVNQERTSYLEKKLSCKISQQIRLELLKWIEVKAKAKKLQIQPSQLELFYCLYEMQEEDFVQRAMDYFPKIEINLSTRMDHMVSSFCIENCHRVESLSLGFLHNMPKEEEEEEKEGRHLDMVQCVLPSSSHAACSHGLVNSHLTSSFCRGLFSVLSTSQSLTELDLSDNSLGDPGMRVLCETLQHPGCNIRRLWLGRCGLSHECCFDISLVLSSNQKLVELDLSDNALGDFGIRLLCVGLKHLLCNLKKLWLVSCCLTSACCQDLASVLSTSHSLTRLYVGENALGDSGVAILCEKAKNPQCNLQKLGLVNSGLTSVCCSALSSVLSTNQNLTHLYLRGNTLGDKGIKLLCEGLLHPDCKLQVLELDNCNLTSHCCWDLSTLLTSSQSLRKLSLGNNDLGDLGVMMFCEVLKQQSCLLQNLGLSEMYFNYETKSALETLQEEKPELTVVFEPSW

| IC50 | SMILES |
| --- | --- |
| ≤ 10 µM | COc1cc(-c2cc(F)cc(C(C)C)c2CC(=O)NS(=O)(=O)c2ccc(=O)n(C)c2)ccn1 [Example 1, 2-(4-Fluoro-2-isopropyl-6-(2-methoxypyridin-4-yl)phenyl)-N-((1-methyl-6-oxo-,6-dihydropyridin-3-yl)sulfonyl)acetamide, potassium salt] |
| ≤ 5 µM | COc1cc(-c2cc(F)cc(C(C)C)c2CC(=O)NS(=O)(=O)c2ccc(=O)n(C(C)C)c2)ccn1 [Example 2, 2-(4-Fluoro-2-isopropyl-6-(2-methoxypyridin-4-yl)phenyl)-N-((1-isopropyl-6-oxo-,6-dihydropyridin-3-yl)sulfonyl)acetamide, potassium salt] |
| ≤ 1 µM | COc1cc(-c2cc(F)cc(C(C)C)c2CC(=O)NS(=O)(=O)c2cn(C)c(=O)n(C)c2=O)ccn1 [Example 3, N-((1,3-Dimethyl-2,4-dioxo-1,2,3,4-tetrahydropyrimidin-5-yl)sulfonyl)-2-(4-fluoro-2-isopropyl-6-(2-methoxypyridin-4-yl)phenyl)acetamide] |
| ≤ 1 µM | COc1cc(-c2cc(F)cc(C(C)C)c2CC(=O)NS(=O)(=O)c2ccc(Cl)cc2F)ccn1 [Example 4] |
| ≤ 1 µM | COc1cc(-c2cc(F)cc(C(C)C)c2CC(=O)NS(=O)(=O)c2cccc(Cl)c2)ccn1 [Example 5] |
| ≤ 10 µM | COc1cc(-c2cc(F)cc(C(C)C)c2CC(=O)NS(=O)(=O)c2cccc(Cl)c2C)ccn1 [Example 6] |
| ≤ 5 µM | COc1cc(-c2cc(F)cc(C(C)C)c2CC(=O)NS(=O)(=O)c2ccccc2Cl)ccn1 [Example 7] |
| ≤ 10 µM | COc1cc(-c2cc(F)cc(C(C)C)c2CC(=O)NS(=O)(=O)c2sccc2C(C)(C)O)ccn1 [Example 8] |
| ≤ 5 µM | COC(=O)c1ccc(S(=O)(=O)NC(=O)Cc2c(-c3ccnc(OC)c3)cc(F)cc2C(C)C)cc1Cl [Example 9] |
| ≤ 5 µM | CC(C)c1cc(F)cc(-c2ccc(Cl)nc2)c1CC(=O)NS(=O)(=O)c1cc(C(C)(C)O)cs1 [Example 10] |
| ≤ 1 µM | COc1cc(-c2cc(F)cc(C(C)C)c2CC(=O)NS(=O)(=O)c2ccc(Cl)c(Cl)c2)ccn1 [Example 11] |
| ≤ 1 µM | COc1cc(-c2cc(F)cc(C(C)C)c2CC(=O)NS(=O)(=O)c2ccc(Cl)cc2OC)ccn1 [Example 12] |
| ≤ 1 µM | COc1cc(-c2cc(F)cc(C(C)C)c2CC(=O)NS(=O)(=O)c2ccc(Cl)cc2Cl)ccn1 [Example 13] |
| ≤ 0.5 µM | COc1cc(-c2cc(F)cc(C(C)C)c2CC(=O)NS(=O)(=O)c2ccc(N(C)C)cc2C)ccn1 [Example 14] |
| ≤ 5 µM | COc1cc(-c2cc(F)cc(C(C)C)c2CC(=O)NS(=O)(=O)c2ccc(C(=O)N(C)C)cc2C)ccn1 [Example 15] |
| ≤ 5 µM | CC(C)c1cc(F)cc(-c2ccncc2)c1CC(=O)NS(=O)(=O)c1ccc(Cl)cc1 [Example 16] |
| ≤ 5 µM | CC(C)c1cc(F)cc(-c2cccnc2)c1CC(=O)NS(=O)(=O)c1ccc(Cl)cc1 [Example 17] |
| ≤ 10 µM | COc1cc(-c2cc(F)cc(C(C)C)c2CC(=O)NS(=O)(=O)c2ccc(B(O)O)cc2)ccn1 [Example 18] |

| IC50 | SMILES |
| --- | --- |
| ≤ 1 µM | COc1cc(-c2cc(F)cc(C(C)C)c2CC(=O)NS(=O)(=O)c2ccc(Br)cc2)ccn1 [Example 19] |
| ≤ 1 µM | COc1cc(-c2ccc3c(c2CC(=O)NS(=O)(=O)c2cc(C(C)(C)O)cs2)CCC3)ccn1 [Example 20, N-((4-(2-Hydroxypropan-2-yl)thiophen-2-yl)sulfonyl)-2-(5-(2-methoxypyridin-4-yl)-2,3-dihydro-1H-inden-4-yl)acetamide] |
| ≤ 10 µM | CC(C)n1ccc(S(=O)(=O)NC(=O)Cc2c(-c3ccnc(C#N)c3)ccc3c2CCC3)n1 [Example 21, 2-(5-(2-Cyanopyridin-4-yl)-2,3-dihydro-H-inden-4-yl)-N-((1-isopropyl-1H-pyrazol-3-yl)sulfonyl)acetamide] |
| ≤ 5 µM | CC(C)(O)c1csc(S(=O)(=O)NC(=O)Cc2c(-c3ccnc(C#N)c3)ccc3c2CCC3)c1 [Example 22, 2-(5-(2-Cyanopyridin-4-yl)-2,3-dihydro-1H-inden-4-yl)-N-((4-(2-hydroxypropan-2-yl)thiophen-2-yl)sulfonyl)acetamide] |
| ≤ 5 µM | COc1cc(-c2cc(F)cc(C(C)C)c2CC(=O)NS(=O)(=O)c2ccn(C(C)C)n2)ccn1 [Example 23, 2-(4-Fluoro-2-isopropyl-6-(2-methoxypyridin-4-yl)phenyl)-N-((1-isopropyl-1H-pyrazol-3-yl)sulfonyl)acetamide, potassium salt] |
| ≤ 10 µM | CC(C)c1cc(F)cc(-c2cccnc2)c1CC(=O)NS(=O)(=O)c1ccn(C(C)C)n1 [Example 24, 2-(4-Fluoro-2-isopropyl-6-(pyridin-3-yl)phenyl)-N-((1-isopropyl-1H-pyrazol-3-yl)sulfonyl)acetamide, potassium salt] |
| ≤ 0.5 µM | CC(C)c1cc(F)cc(-c2cccnc2)c1CC(=O)NS(=O)(=O)c1cc(C(C)(C)O)cs1 [Example 25, 2-(4-Fluoro-2-isopropyl-6-(pyridin-3-yl)phenyl)-N-((4-(2-hydroxypropan-2-yl)thiophen-2-yl)sulfonyl)acetamide] |
| ≤ 0.5 µM | COc1cc(-c2cc(F)cc(C(C)C)c2CC(=O)NS(=O)(=O)c2cc(C(C)(C)O)cs2)ccn1 [Example 26, 2-(4-Fluoro-2-isopropyl-6-(2-methoxypyridin-4-yl)phenyl)-N-((4-(2-hydroxypropan-2-yl)thiophen-2-yl)sulfonyl)acetamide] |
| ≤ 0.5 µM | CC(C)c1cc(F)cc(-c2ccncc2)c1CC(=O)NS(=O)(=O)c1cc(C(C)(C)O)cs1 [Example 27, 2-(4-Fluoro-2-isopropyl-6-(pyridin-4-yl)phenyl)-N-((4-(2-hydroxypropan-2-yl)thiophen-2-yl)sulfonyl)acetamide, potassium salt] |
| ≤ 5 µM | CCOC(=O)c1cc(S(=O)(=O)NC(=O)Cc2c(-c3ccnc(OC)c3)cc(F)cc2C(C)C)nn1C [Example 28, Ethyl 3-(N-(2-(4-fluoro-2-isopropyl-6-(2-methoxypyridin-4-yl)phenyl)acetyl)sulfamoyl)-1-methyl-1H-pyrazole-5-carboxylate] |
| ≤ 5 µM | COc1cc(-c2cc(F)cc(C(C)C)c2CC(=O)NS(=O)(=O)c2ccc3c(c2)C(C)(C)OC3=O)ccn1 [Example 29, N-((3,3-Dimethyl-1-oxo-1,3-dihydroisobenzofuran-5-yl)sulfonyl)-2-(4-fluoro-2-isopropyl-6-(2-methoxypyridin-4-yl)phenyl) acetamide] |
| ≤ 5 µM | COc1cc(-c2cc(F)cc(C(C)C)c2CC(=O)NS(=O)(=O)c2cccc(C#N)c2)ccn1 [Example 30, N-((3-Cyanophenyl)sulfonyl)-2-(4-fluoro-2-isopropyl-6-(2-methoxypyridin-4-yl)phenyl)acetamide] |
| ≤ 5 µM | COc1cc(-c2cc(F)cc(C(C)C)c2CC(=O)NS(=O)(=O)c2ccc(CN(C)C)cc2)ccn1 [Example 31, N-((4-((Dimethylamino)methyl)phenyl)sulfonyl)-2-(4-fluoro-2-isopropyl-6-(2-methoxypyridin-4-yl)phenyl)acetamide, potassium salt] |
| ≤ 1 µM | COc1cc(-c2cc(F)cc(C(C)C)c2CC(=O)NS(=O)(=O)c2cccc(CC#N)c2)ccn1 [Example 32, N-((3-(Cyanomethyl)phenyl)sulfonyl)-2-(4-fluoro-2-isopropyl-6-(2-methoxypyridin-4-yl)phenyl)acetamide] |
| ≤ 0.5 µM | COc1cc(-c2cc(F)cc(C(C)C)c2CC(=O)NS(=O)(=O)c2ccc(C(C)(C)O)cc2C)ccn1 [Example 33, 2-(4-Fluoro-2-isopropyl-6-(2-methoxypyridin-4-yl)phenyl)-N-((4-(2-hydroxypropan-2-yl)-2-methylphenyl)sulfonyl)acetamide] |
| ≤ 10 µM | COc1cc(-c2cc(F)cc(C(C)C)c2CC(=O)NS(=O)(=O)c2ccc(F)c(C#N)c2)ccn1 [Example 34, N-((3-Cyano-4-fluorophenyl)sulfonyl)-2-(4-fluoro-2-isopropyl-6-(2-methoxypyridin-4-yl)phenyl)acetamide] |
| ≤ 10 µM | COc1cc(-c2cc(F)cc(C(C)C)c2CC(=O)NS(=O)(=O)c2cc(C#N)ccc2C)ccn1 [Example 35, N-((5-Cyano-2-methylphenyl)sulfonyl)-2-(4-fluoro-2-isopropyl-6-(2-methoxypyridin-4-yl)phenyl)acetamide] |
| ≤ 5 µM | CC(C)c1cc(F)cc(-c2ccncc2)c1CC(=O)NS(=O)(=O)c1ccc(CN(C)C)cc1 [Example 36, N-((4-((Dimethylamino)methyl)phenyl)sulfonyl)-2-(4-fluoro-2-isopropyl-6-(pyridin-4-yl)phenyl)acetamide] |
